Measurements published in publication PMC10669052, “Exploring Differences in Pharmacometrics of Rabeprazole between Genders via Population Pharmacokinetic–Pharmacodynamic Modeling” (Biomedicines, 2023).
≈ marks a conversion by molar mass, not a printed value. Where two headings read alike, the source gives them in different places.

What was measured:
clinical = settings: for AUC / AUC(0-inf) / AUCextrap / Cmax / MRT / Tmax / Vd/F / half-life: human, in vivo, po
Description: Analysis of biochemical parameters was performed on all subjects participating in the clinical trial and the methods are presented in Supplementary Information S1. Information relating to the selection and progress of clinical trial participants is presented in Supplementary Information S2, and information on the clinical trial design and sampling is presented in Supplementary Information S3. The clinical trial protocol was thoroughly reviewed and officially approved (approval number: MB22-002; approved on 15 February 2022) by the Ministry of Food and Drug Safety (Cheongju-si, Republic of Korea). NCA was used to calculate the rabeprazole pharmacokinetic parameters for males and females before a comparison of rabeprazole pharmacokinetics was performed between genders to determine any significant rabeprazole pharmacokinetic parameters in males and females. Pharmacokinetic parameters calculated by NCA were estimated based on plasma concentration values over time after orally administering a 10 mg rabeprazole enteric-coated tablet. Information on the analytical method applied to quantify rabeprazole among plasma samples is briefly presented in Supplementary Information S4, whereas the methods for calculating pharmacokinetic parameters using NCA are presented in Supplementary Information S5. An additional NCA analysis was performed based on the normalized rabeprazole plasma concentration values for body weight, which is one of the major physiological differences between genders that has been frequently applied in past pharmacokinetic comparative studies between genders, and the results were categorized and compared by gender. The significant differences between genders were compared using a two-tailed t test, with significance determined at a p value of 0.05.
43 Supplementary Information 3
45 Clinical trial design and sampling
46 This bioequivalence investigation was performed as randomized, single-dose, open-label,
47 crossover, and two-way studies (with a washout period of 7 days). Prior to the clinical trial,
49 Minneapolis, MN, USA) installed into a vein on the arm or back of the hand, and 6 mL of blank
50 blood was collected. Then, all subjects were orally administered a single 10 mg rabeprazole
51 enteric-coated tablet along with 150 mL of water. Subjects had fasted for more than 10 h before
52 administration. Blood sampling from subjects was performed at a total of 13 specific time
53 points post-dose: Before administration (0 h) and at 1, 2, 2.5, 3, 3.5, 4, 4.5, 5, 5.5, 6, 7, 8, and
54 10 h after oral administration. The sampling method was as follows: To completely remove the
55 heparinized saline solution remaining in the venous catheter during blood collection,
56 approximately 1 mL of blood was collected and discarded each time, and approximately 6 mL
57 of blood was collected and placed in sodium heparinized vacutainer tubes (BD, Franklin Lakes,
58 NJ, USA) with the subject management number and blood collection time written on them.
59 After each blood draw, a saline solution for injection (containing heparin for injection) was
60 administered to prevent the blood remaining in the intravenous catheter from clotting. The
61 collected blood was centrifuged at 3,000 ×g for 10 min in a centrifuge set at 4 °C, and then
62 approximately 1 mL of plasma was taken, transferred to an Eppendorf tube (Eppendorf, […]

[1] = Population pharmacokinetic model (three sequential absorption with Tlag, two-compartment; Phoenix NLME); assay type: in vivo, human; settings: for CL/F: both sexes, human, plasma, oral, 10 mg, read-out: tvCLc/F (typical value, central compartment clearance) (converted)
Description: Construction and analysis of the population pharmacokinetic model for rabeprazole were performed using a non-linear mixed effects model approach using Phoenix NLME (version 8.4, Pharsight, Certara Inc., Princeton, NJ, USA) software. An estimation of population pharmacokinetic parameters for rabeprazole was performed using the first-order conditional estimates method with extended least squares estimation (with ŋ–ε interaction). The development of the rabeprazole population pharmacokinetic model was largely performed in two steps. First, a basic structural model was established that could explain the plasma concentration of rabeprazole following its oral administration. This included a number of basic compartments, whether to reflect the lag time (Tlag) associated with rabeprazole oral absorption, the mechanistic structuring involved in the absorption process (including multiple absorption), or the selection of relevant error models to account for residual and IIV. Thus, in establishing the model, the values obtained using the NCA calculations were reflected as the initial parameter values, which accelerated the convergence of the final parameters and enabled its effective modeling. Second, a search was performed for model-applicable effective covariates relevant to the inter-individual rabeprazole pharmacokinetic variation modeling. This was achieved by applying stepwise candidate covariates to the IIVs of the pharmacokinetic parameters reflected in the model. Gender and individual physiological and biochemical factors were considered potential effective covariates and treated as categorical and continuous data, respectively, before application priorities were determined based on the results of the previous correlation screening. Appropriate models for each step were selected and performed using various statistical significance tools derived from Phoenix NLME, including Akaike’s information criterion (AIC), twice the negative log-likelihood (−2LL), and goodness-of-fit (GOF) plots, whereas the significance of the total number of parameters applied to the model (increased or decreased degrees of freedom) was also considered. Significance was determined using a Chi-square distribution p value of 0.05 (for forward selection) and 0.01 (for backward elimination) at −2LL and objective function value (OFV). The adequacy of the rabeprazole population pharmacokinetic model was verified using GOF (including distribution of residuals), visual predictive check (VPC), and bootstrapping processes. Approaches to each tool for model verification are presented in Supplementary Information S6.
The structure of the rabeprazole population pharmacokinetic model can be explained as two compartments, each with three sequential first-order absorption and Tlag values. As for the basic compartments, significant model improvements (−2LL reduction of p < 0.05 and/or 0.01) were confirmed in two-compartment structures rather than in one, whereas the −2LL increased in three- or more compartment structures alongside the total number of parameters. As a result, the plasma rabeprazole concentration profiles could be explained by its distribution in the central and peripheral compartments with two kinetics in the body. Regarding the delayed absorption pattern of rabeprazole during the absorption phase, several structural absorption compartment models have been attempted, such as the Tlag reflection model, the non-sequential two absorption model (having two or more absorption points with consideration of bioavailability), and the sequential absorption model (via the application of two or more absorption rate constant parameters between successive absorption compartments). In addition, mathematical transformation models, such as Weibull absorption, saturation, zero-order, and mean transit time (MTT) have also been attempted. […]

gastric pH = experiment: Pharmacodynamic model (sigmoid Emax with baseline) of gastric pH versus rabeprazole plasma concentration; assay type: in vivo, human; settings: sigmoid Emax model with baseline fitted to digitized gastric pH vs plasma concentration data
Excerpt: The pharmacodynamic model was established based on rabeprazole plasma concentration-measured drug efficacy information (quantified using Web-plot-digitizer (version 4.6)), according to the rabeprazole exposure. The efficacy of rabeprazole was indicated by changes in gastric pH, which was related to plasma rabeprazole selectively inhibiting H^+/K^+-ATPase in gastric parietal cells, thereby increasing intragastric pH. Pharmacodynamic predictions for rabeprazole were achieved by structuring the effect compartment related to the rabeprazole pharmacokinetic profile in the central compartment. Simply, the change in the plasma pharmacokinetic profile over time after administering rabeprazole is directly related to the change in drug efficacy. Therefore, it could be expanded and implemented as a pharmacodynamic model, whereby the time–drug effect after exposure to rabeprazole can be quantified. The established and validated population pharmacokinetic model structure and parameter values associated with rabeprazole were fixed as representative values of the population before being expanded into a model to predict the pharmacodynamics of rabeprazole. This was conducted to explore the effect of any differences in the absorption rate of rabeprazole between genders.

[2] = final population PK model, Estimate
[3] = population PK model estimate as quoted in text

SMILES: COCCCOc1ccnc(C[S+]([O-])c2nc3ccccc3[nH]2)c1C (centres unmarked) [rabeprazole, Rabeprazole]
- AUC (clinical; both, 10 mg): 432 ± 166 ng·h/mL
- AUC(0-inf) (clinical; both, 10 mg): 456 ± 174 ng·h/mL
- AUCextrap (clinical; both, 10 mg): 5.07 ± 9.42%
- Cmax (clinical; both, 10 mg): 236.57 ± 97.86 ng/mL
- MRT (clinical; both, 10 mg): 4.79 ± 1.7 h
- Tmax (clinical; both, 10 mg): 3.71 ± 1.22 h
- Vd/F (clinical; both, 10 mg): 53.9 ± 27.3 L
- half-life (clinical; both, 10 mg): 1.55 ± 0.54 h
- Tmax (clinical; female): 4.1 ± 1.15 h
- AUC (clinical; female, 10 mg): 424 ± 176 ng·h/mL
- AUC(0-inf) (clinical; female, 10 mg): 453 ± 181 ng·h/mL
- AUCextrap (clinical; female, 10 mg): 4.38 ± 7.82%
- Cmax (clinical; female, 10 mg): 260 ± 113 ng/mL
- MRT (clinical; female, 10 mg): 5.25 ± 1.97 h
- Vd/F (clinical; female, 10 mg): 54.3 ± 38.1 L
- half-life (clinical; female, 10 mg): 1.48 ± 0.64 h
- AUC (clinical; male, 10 mg): 439 ± 161 ng·h/mL
- AUC(0-inf) (clinical; male, 10 mg): 459 ± 172 ng·h/mL
- AUCextrap (clinical; male, 10 mg): 3.84 ± 4.01%
- Cmax (clinical; male, 10 mg): 216 ± 79.6 ng/mL
- MRT (clinical; male, 10 mg): 4.4 ± 1.36 h
- Tmax (clinical; male, 10 mg): 3.38 ± 1.21 h
- Vd/F (clinical; male, 10 mg): 53.5 ± 12.8 L
- half-life (clinical; male, 10 mg): 1.6 ± 0.44 h
- AUCinf (plasma concentrations normalized by body weight) (clinical; single oral 10 mg enteric-coated tablet, NCA, body weight normalized, Total (n = 45), mean ± SD): 7.17 ± 3.34 ng·h/mL/kg
- dKa3dBSA (quantitative correlation value between Ka3 and body surface area) ([1]; Bootstrap (n = 1000) Median): −0.95
- dTlagdGender (quantitative correlation value between Tlag and gender) ([1]; Bootstrap (n = 1000) Median): 0.67
- tvCLp/F (typical value, peripheral compartment clearance) ([1]; Bootstrap (n = 1000) Median): 5.38 L/h
- tvKa1 (first sequential absorption rate constant) ([1]; Bootstrap (n = 1000) Median): 1.89 h⁻¹
- tvKa2 (second sequential absorption rate constant) ([1]; Bootstrap (n = 1000) Median): 2.03 h⁻¹
- tvKa3 (third sequential absorption rate constant) ([1]; Bootstrap (n = 1000) Median): 3.26 h⁻¹
- tvTlag (typical value, lag time) ([1]; Bootstrap (n = 1000) Median): 1.55 h
- tvVc/F (typical value, central compartment distribution volume) ([1]; Bootstrap (n = 1000) Median): 10.06 L
- tvVp/F (typical value, peripheral compartment distribution volume) ([1]; Bootstrap (n = 1000) Median): 11.30 L
- ε (residual error) ([1]; Bootstrap (n = 1000) Median): 0.35
- ω^2CLc/F (inter-individual variability) ([1]; Bootstrap (n = 1000) Median): 0.14
- ω^2Ka1 (inter-individual variability) ([1]; Bootstrap (n = 1000) Median): 0.00
- ω^2Ka2 (inter-individual variability) ([1]; Bootstrap (n = 1000) Median): 0.00
- ω^2Ka3 (inter-individual variability) ([1]; Bootstrap (n = 1000) Median): 1.82
- ω^2Tlag (inter-individual variability) ([1]; Bootstrap (n = 1000) Median): 0.23
- ω^2Vc/F (inter-individual variability) ([1]; Bootstrap (n = 1000) Median): 1.55
- CL/F ([1]; Bootstrap (n = 1000) Median): 424 mL/min
- CL/F [1, 2]: 428 mL/min
- dKa3dBSA (quantitative correlation value between Ka3 and body surface area) [1, 2]: −1.11
- tvCLp/F (typical value, peripheral compartment clearance) [1, 2]: 5.45 L/h
- tvKa1 (first sequential absorption rate constant, dosing depot–depot 1) [1, 2]: 1.91 h⁻¹
- tvKa2 (second sequential absorption rate constant, depot 1–depot 2) [1, 2]: 2.43 h⁻¹
- tvKa3 (third sequential absorption rate constant, depot 2–central compartment) [1, 2]: 3.34 h⁻¹
- tvTlag (typical value, lag time) [1, 2]: 1.56 h
- tvVc/F (typical value, central compartment distribution volume) [1, 2]: 10.31 L
- tvVp/F (typical value, peripheral compartment distribution volume) [1, 2]: 11.46 L
- ω^2CLc/F (inter-individual variability) [1, 2]: 0.14
- ω^2Ka1 (inter-individual variability) [1, 2]: 0.00
- ω^2Ka2 (inter-individual variability) [1, 2]: 0.00
- ω^2Ka3 (inter-individual variability) [1, 2]: 1.74
- ω^2Tlag (inter-individual variability) [1, 2]: 0.23
- ω^2Vc/F (inter-individual variability) [1, 2]: 2.04
- dTlagdGender (quantitative correlation value between Tlag and gender) ([1]; final population PK model, Estimate, female = 1, male = 0): 0.73
- ε (residual error) ([1]; final population PK model, Estimate, log-additive error model): 0.37
- Vc/F estimate [1, 3]: 10.3 L
- Vp/F estimate [1, 3]: 11.5 L
- EC50 (gastric pH; Homo sapiens, read-out: EC50 (plasma rabeprazole concentration required to achieve 50% of the Emax)): 0.0516 µg/mL (≈ 0.143 µM)
- E0 (basal pH effect in the stomach that occurs without rabeprazole) (gastric pH): 2.50
- Emax (maximal effect of increasing gastric pH by plasma rabeprazole level) (gastric pH): 4.72
- γ (sigmoidicity factor) (gastric pH): 5.04
